Data: publication PMC5655693, “Conformational stabilization as a strategy to prevent nucleophosmin mislocalization in leukemia” (Scientific Reports, 2017)

How the values were obtained:
[1] = molecular target: T1, Nucleophosmin (NPM) (Homo sapiens, UniProt P06748); assay: SPR steady state ([…] model, S0.[…] ≈ KD); DSF ΔTm […] °C at […] with C-terminal domain; Trp fluorescence unfolding; format: binding
T1 construct: gene NPM1; full-length NPM (SPR); C-terminal domain residues 243–294 (DSF)

[2] = molecular target: T1, Nucleophosmin (NPM); assay: SPR steady state ([…] model, S0.[…] ≈ KD); DSF ΔTm […] °C at […] with C-terminal domain; format: binding

T1 sequence (P06748 whole entry, the tested form may be a part): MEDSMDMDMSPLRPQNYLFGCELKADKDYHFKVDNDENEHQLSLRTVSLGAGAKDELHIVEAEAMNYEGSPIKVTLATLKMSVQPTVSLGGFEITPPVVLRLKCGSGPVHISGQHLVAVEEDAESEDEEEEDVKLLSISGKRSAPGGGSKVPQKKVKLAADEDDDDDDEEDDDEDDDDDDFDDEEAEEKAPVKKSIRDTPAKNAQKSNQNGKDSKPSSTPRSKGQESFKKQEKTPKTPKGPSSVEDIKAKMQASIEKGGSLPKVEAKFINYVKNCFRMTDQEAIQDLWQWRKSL

Row | Kd [1] [µM] | Kd [2] [µM] | SMILES
1 | 68 ± 13 |  | CC1=C(C(=O)Nc2ccc(Br)cn2)C(c2ccccn2)C2=C(CC(c3ccccc3)CC2=O)N1 (centres unmarked) [C1]
2 |  | 102 ± 23 | Cc1ccc(-n2c(SCC(=O)Nc3ccc4c(c3)OCCO4)nc3ccccc3c2=O)cc1 [C3]
